What all share (assay type): physicochemical
A short description of data set [1]: Krafft point by conductivity vs temperature. The conditions noted are these: 1.0 wt % surfactant in water (2.0 wt % for OFS-12-1/O). The protocol:
Krafft point or Krafft temperature is the minimum temperature at which surfactants form micelles. Below Krafft point, the surfactants precipitate out of solution and remain in the crystalline phase. FIG. 30 depicts the apparatus utilized for the measurement of Krafft points. A 1.0 wt % solution of surfactant in deionized water was prepared for all surfactants except in the case of OFS-12-1/O where a 2.0 wt % solution was used instead, since its CMC is roughly about 1.1 wt %. 50 mL of the prepared solution was poured into a beaker surrounded by a freezing mixture of ice and salt (sodium chloride) mounted on a laboratory hot plate with magnetic stirring. The Krafft point (TK) of the surfactants was measured by estimating the degree of counterion dissociation using a conductivity meter (COND 6+, Oakton/Eutech Instruments) immersed in the surfactant solution capable of measuring both, conductivity and temperature. The magnetic stirring speed was set to 650 rpm and the solution was first allowed to cool to 0° C. Upon attainment of this temperature, the solution was slowly heated and the conductivity was measured in every 0.5° C. increments until it reached a steady value. […] Visually, this corresponded to the surfactant solution transitioning from a turbid system due to the precipitated surfactant crystals below the Krafft point to a clear solution indicating the dissolution of surfactants and the formation of micelles in water.
For the OFS-Cocinic, n=8-18 surfactant, the conductivity vs temperature plot was erratic, which is attributed to the presence of 6 different surfactants in the mixture. The solution changed from turbid to clear at approximately 18.5° C. which was, therefore, reported as the Krafft point. Methyl Ester Sulfonate (MES), Sodium Lauryl Ether Sulfate (SLES), OFS-7 and all OFS-n-1/O surfactant solutions remained clear even at 0° C.; the Krafft point was thus reported as <0° C.

Data set [2] in a line: Hardness tolerance / hard water stability (surface tension and turbidity vs CaCl2 concentration). The conditions noted are these: for Turbid conc.: onset of turbidity. An excerpt: Precipitation of the anionic surfactant from hard water is an undesired process in detergency. The tendency of the anionic surfactants to precipitate is quantified by analyzing hardness tolerance. Hardness tolerance is the minimum concentration of counterion, such as, Ca^2+ and Mg^2+, precipitating with surfactant, resulting in deactivation of the surfactant performance (C. H. Rodriguez, L. H. Lowery, J. F. Scamehorn, J. H. Harwell, Kinetics of precipitation of surfactants. I. Anionic surfactants with calcium and with cationic surfactants. Journal of Surfactants and Detergents 4, 1-14 (2001); C. H. Rodriguez, C. Chintanasathien, J. F. Scamehorn, C. Saiwan, S. Chavadej, Precipitation in solutions containing mixtures of synthetic anionic surfactant and soap. I. Effect of sodium octanoate on hardness tolerance of sodium dodecyl sulfate. Journal of Surfactants and Detergents 1, 321-328 (1998); and J. F. Scamehorn, “Precipitation of mixtures of anionic surfactants” in mixed Surfactant systems ACS Symposium Series (American Chemical Society: Washington D.C., 1992), pp. 392-401). Calcium chloride was used as a divalent counterion, and surface tension of the surfactant solution was measured with increasing concentration of CaCl2 from 1 mM to 450 mM. The value of calcium concentration above which the surface tension of the surfactant solution increased was recorded as the tolerance value of the surfactant towards calcium as indicated by the dashed red line in FIGS. 46A to 49B.
All experiments were carried out at a concentration equal to twice CMC of each surfactant, and the point of transition from a clear solution to a turbid one was also monitored. FIGS. 50A to 50E illustrate this effect for a linear alkylbenzene sulfonate (LAS) solution. Below the turbid point, the surfactant solution was clear as shown by FIGS. 50B and 50C which changed to a cloudy solution at calcium concentrations equal to and greater than the turbid point (FIG. 50D and FIG. 50E). The point of micelle stability was marked by an increase in the surface tension of the surfactant solution with an increase in calcium concentration. FIG. 50C corresponds to the micelle stability concentration and FIG. 50D corresponds to the turbid concentration. Micelle stability is defined as the calcium concentration at the increasing point of surface tension, and turbid concentration marks the onset of turbidity in the surfactant solution The solution transitions from clear to turbid as shown in FIGS. 50B to 50E

Data set [3] can be described thus: Particle size distribution of micelles via dynamic light scattering (DLS). The protocol:
Dynamic Light Scattering (DLS) has been used in the past for studying surfactant aggregates (N. Vlachy, M. Drechsler, J.-M. Verbavatz, D. Touraud, W. Kunz, Role of surfactant headgroup on the counterion specificity in the micelle-to-vesicle transition through salt addition. J. Colloid Interface Sci. 319, 542-548 (2008)). Micelle size distribution studies of the OFS-12 surfactant was performed using the Microtrac NANO-flex analyzer which employs a 180° scattering angle DLS technique. Two different surfactant concentration samples were prepared (5.0 and 10×CMC, 0.35 and 0.7 wt %) by dissolving the required amount of surfactant in deionized water and filtering the solution after surfactant dissolution using a 0.2μ micropore filter to remove any dust particles. Prior to each sample run, a blank solution (DI water) was used to set the baseline to zero. FIGS. 26A and 26B show the average particle size distribution plots for the surfactant solutions. The average values were computed based on five individual trials each lasting 120 sec.

5 compounds from patent publication US20180327375A1, “AROMATIC SURFACTANTS” (REGENTS OF THE UNIVERSITY OF MINNESOTA, priority 2015, published 2018) can be followed below.

“And” between values parts separate entries of the source, which are not always exact repeats. Identical values can stand only once. Counter-ions that a name gives are not always drawn. Like-named read-outs stand apart in the source and are kept apart here. Bounds are passed on as bounds.

Regarding `CCCCCCCc1ccc(S(=O)(=O)[O-])o1.[Na+]` [OFS-7, Sodium 5-Heptylfuran-2-Sulfonate], the “Krafft Point” value in data set [1] is less than 0 °C. In data set [2], the “Micelle Stability” value was 120 ppm Ca^2+ and the Micelle stability conc. is on record as 110 ppm of CaCl2. Also, in data set [2] (surfactant at twice CMC), the Turbid conc. is reported as 230 ppm of CaCl2.

On to `CCCCCCCCCCCCc1ccc(S(=O)(=O)[O-])o1.[Na+]` [OFS-12, Sodium 5-Dodecylfuran-2-Sulfonate], for which, in data set [1], the “Krafft Point” value is 30 °C and 30.0 ± 1.0 °C. The “Micelle Stability” value in data set [2] was > 50,000 ppm Ca^2+. For the same compound, the Micelle stability conc. in data set [2] is >50,000 ppm of CaCl2. The Turbid conc. in data set [2] (surfactant at twice CMC) is on record as 10,000 ppm of CaCl2. The “Average micelle size (number distribution)” value in data set [3] (surfactant concentration 5.0×CMC in deionized water) was found to be 7.41 nm; in data set [3] (surfactant concentration 10.0×CMC in deionized water), 6.29 nm.

For the compound `CCCCCCCCCCCCCCc1ccc(S(=O)(=O)[O-])o1.[Na+]` [OFS-14, Sodium 5-Tetradecylfuran-2-Sulfonate], in data set [1], the “Krafft Point” value was 41.5 °C and 41.5 ± 0.9 °C. Besides, in data set [2], the “Micelle Stability” value was > 50,000 ppm Ca^2+ and the Micelle stability conc. was >50,000 ppm of CaCl2. The Turbid conc. in data set [2] (surfactant at twice CMC) is recorded as 2,000 ppm of CaCl2.

Regarding `CCCCCCCCCCCCOS(=O)(=O)O` [SLS, sodium dodecyl sulfate, reference compound], in data set [1] (sulfate), the “Krafft Point” value is 15 °C and 15.0 ± 1.2 °C. In addition, in data set [2] (surfactant at twice CMC), the Micelle stability conc. is listed as 33 ppm of CaCl2 and the Turbid conc. is 33 ppm of CaCl2. Besides, the “Micelle Stability” value in data set [2] (surfactant at twice CMC, calcium concentration where surface tension starts to increase) is recorded as 33 ppm Ca^2+.

For the compound “sodium lauryl ether sulfate [SLES, reference compound]”, in data set [1], the “Krafft Point” value was less than 0 °C. Further, in data set [2], the “Micelle Stability” value is on record as > 50,000 ppm Ca^2+ and the Micelle stability conc. is on record as >50,000 ppm of CaCl2. Moreover, the Turbid conc. in data set [2] (surfactant at twice CMC) is on record as >50,000 ppm of CaCl2.
